Measurements from the METLIN SMRT retention time set (Domingo-Almenara et al. 2019).

Assay: gradient 5% acetonitrile 3 min, to 50% in 2 min, to 85% in 15 min, held 3 min, 100 µL/min
Details: column: Zorbax Extend-C18 2.1 x 50 mm; eluents: water / acetonitrile, 0.1% formic acid
Method in brief: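 Standards, all pure, were combined into mixtures of ~100 molecules and run at 100 μL/min on a Zorbax Extend-C18 column (2.1 × 50 mm, 1.8 μm) with water and acetonitrile, each containing 0.1% formic acid. A coupled quadrupole time-of-flight mass spectrometer operated in positive and negative ionization mode. Retention time values come from computationally picked adduct peaks, each inspected manually.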

SMILES | RP-LC retention time [s]
CCCc1c(C(=O)O)nnn1Cc1ccccc1 | 746
Cc1ccc(NC(=O)CN2CCC(c3nc(-c4cccs4)no3)CC2)c(Cl)c1 | 777
c1ccc2c(c1)CC(N1CCN(c3cccc4c3OCCO4)CC1)C2 | 741
COc1ccccc1-c1noc(C2CCCN2C(=O)Nc2cccc(C)c2C)n1 (centres undefined) | 858
Cc1ccc(S(=O)(=O)N2CCCC(C(=O)NCc3c(C)nc4sc(C)nn34)C2)cc1 (centres undefined) | 687
COc1ccccc1Cc1noc(C2CN(C(=O)CCc3c(C)noc3C)C2)n1 | 738
CCCCNS(=O)(=O)c1cc(-c2[nH]ncc2C(=O)N2CCCC2)oc1C | 668
COc1cccc(-n2c(=O)c3sccc3n(Cc3nc(-c4ccccc4Cl)no3)c2=O)c1 | 969
COc1ccc(NC(=O)C2CCc3nc(N4CCOCC4)ncc3C2)c(C)c1 (centres undefined) | 702
O=C(NCC1CCCO1)c1nc(-c2ccnc(N3CCCCCC3)c2)no1 (centres undefined) | 641
CCCOc1nc2ccccc2nc1N1CCCC(C(=O)NC(C)c2ccccc2)C1 (centres undefined) | 1230
Cc1ccc(-c2nc3ccc(Cl)cn3c2Nc2ccccc2C)cc1 | 904
COC(=O)c1cc(C)nc2c1c(=O)n(Cc1ccc(OC)cc1)c(=O)n2C | 953
O=C(c1cn(-c2cc(N3CCOCC3)ncn2)cn1)N1CCSCC1 | 685
CCOC(=O)CSc1nnc(-c2nnc(SCC(=O)OCC)n2CC)n1CC | 758
COC(=O)c1ccc(-c2nc3cnccn3c2Nc2cccc(C(F)(F)F)c2)cc1 | 945
O=C(Cn1nc2c3cc(-c4ccc(Cl)cc4)nn3ccn2c1=O)N1CCCCC1 | 924
COc1ccc(CCNC(=O)Cn2nc3n(c2=O)CCCC3)cc1OC | 613
Cc1ccc2oc(-c3noc(C(=O)NCCC4=CCCCC4)n3)c(C)c2c1 | 1400
CCCC(=O)N1CCN(c2nc(CN3CCOCC3)cs2)CC1 | 580
COc1cc(NC(=O)c2cc(C(C)(C)C)n3nccc3n2)cc(OC)c1 | 721
Cc1ccc(CNC(=O)Cn2cnc3nc(N4CCC(C(=O)NC5CC5)CC4)sc3c2=O)cc1 | 708

SMILES | RP-LC retention time [s]
CN(CC(=O)Nc1c2c(nc3c1CCC3)CCCC2)Cc1ccccc1 | 562
CCCNC(=O)c1cn(-c2cc(-c3nc(C(C)(C)C)no3)ccn2)cn1 | 934
Cc1ccc(CNC(=O)N2CCC3(CC2)NC(=O)c2cccc(Cl)c2N3)cc1 | 773
CC(C)Oc1ccc(-c2noc(Cn3c(=O)n(C(C)C)c(=O)c4ccccc43)n2)cc1 | 1140
Cc1ccc2c(c1)C(=O)NC1(CCN(C(=O)NCc3ccccc3)CC1)N2C | 731
CCc1nn2c(=O)cc(CSc3nnc(-c4ccc5c(c4)OCO5)o3)nc2s1 | 743
COc1ncccc1CNC(=O)CCc1c(C)nn(C)c1C | 580
CCn1c(=O)sc2cc(S(=O)(=O)N3CCC(C(=O)Nc4cc(C)ccc4OC)CC3)ccc21 | 978
Cc1ccc(S(=O)(=O)Nc2n[nH]nc2C(N)=O)cc1 | 603
COCCCNC(=O)c1ccc(-n2nc(C)c3c2CC(C)(C)CC3=O)cc1 | 711
CC1Oc2ccc(-c3csc(NC(=O)c4ccco4)n3)cc2NC1=O (centres undefined) | 783
CCNC(=O)c1ccc(N2CCc3ccccc32)s1 | 824
CC1CN=C2C=C(N3CCN(C(=O)CCc4ccccc4)CC3)N=CN21 (centres undefined) | 620
CCc1cc(C(=O)NCCN2CCOCC2)nc2cc(-c3ccccn3)nn12 | 592
CCN(CC)CCNC(=O)Cc1cc(-c2ccc(F)cc2F)on1 | 556
N#Cc1ccc(CN2C[C@@H](CO)[C@H](c3ccccn3)C2)cc1 | 569
CC1(C)NC(=O)N(CCCCCCN2C(=O)NC(C)(C)C2=O)C1=O | 623
O=C(Cn1c(=O)n(C2CCCC2)c2ncccc21)Nc1ccc(Br)cc1 | 998
CCn1nc(C)n2cc(S(=O)(=O)NCc3cccc(C)c3)cc2c1=O | 882
O=C(CCc1ccccc1)N1CCCC1c1nc(-c2ccccc2Cl)no1 (centres undefined) | 1040
Fc1cccc(CN2CCC(N3CC(OCC4CC4)C34CCCCC4)CC2)c1 (centres undefined) | 588

The next lines start with the values.

RP-LC retention time [s] | SMILES
919 | Cc1ccc(CNC(=O)c2c(C)oc3ccn(C)c(=O)c23)cc1
774 | C=CCNC(=O)CN1C(=O)C2CCCCN2c2ccc(S(=O)(=O)N(C)C)cc21 (centres undefined)
910 | CCOC(=O)C1=C(C)N(CC(=O)NC(C)CC)c2ncnn2C1c1ccc(C)cc1 (centres undefined)
1010 | Cc1ccc(NC(=O)N2CCc3c(c(-c4nnc(-c5ccc(F)cc5)o4)nn3C)C2)cc1Cl
663 | COc1ccc(NC(=O)C2CCN(S(=O)(=O)c3ccc4[nH]c(=O)ccc4c3)CC2)c(OC)c1
834 | O=C(CN1CCN(c2ccccc2)CC1)Nc1nc(-c2ccc(Cl)cc2)cs1
869 | O=C(Cc1nnc(-c2cccc(Br)c2)o1)NCc1ccc(F)cc1Cl
551 | O=C(C1CC(=O)N(c2n[nH]c3ccccc23)C1)N1CCN(CCc2ccccn2)CC1 (centres undefined)
1160 | Cc1ccc(-c2noc(Cn3c(=O)n(Cc4ccccc4)c(=O)c4sccc43)n2)cc1C
832 | CCC(=O)N1CCc2cc(-c3ccc(C(=O)NC(C)C)cc3)ccc21
823 | O=C(Cn1c2ccccc2c2ncn(Cc3nc(C4CC4)no3)c(=O)c21)Nc1ccc2c(c1)OCO2
752 | CN1C(=O)CCc2cc(NC(=O)C3CCCCC3)ccc21
816 | COC(=O)c1cc2n(n1)CC(C)(C(=O)NC1CCC(C)CC1)N(Cc1ccccc1)C2=O (centres undefined)
1040 | Cc1ccccc1N1CCN(C(=O)c2cn(-c3cc(N4CCSCC4)ncn3)cn2)CC1
806 | COC1CN(c2cccc(F)c2)C12CCN(CC1CCCCC1)CC2 (centres undefined)
922 | CCOC(=O)c1ccccc1NC(=O)N1CCC2(CC1)NC(=O)c1ccccc1O2
731 | CCOc1ccc(S(=O)(=O)NCCn2nc(C)cc2C)cc1F
915 | CCOc1ccccc1NC(=O)N1C[C@@H]2CN(S(=O)(=O)c3ccc(C)cc3)C[C@H](C1)O2
1140 | O=C(Nc1ccc(Br)cc1)Nc1ccccc1Cl
615 | CCC1CN2C=NC(N3CCN(C(=O)NCc4cccc(F)c4)CC3)=CC2=N1 (centres undefined)
876 | Cc1ccc2c(c1)N(Cc1ccccc1)N=C(C(=O)N1CCCC1)S2(=O)=O
653 | COc1cccc(NC(=O)N2CCC(c3cc(N)on3)CC2)c1
712 | CCCNC(=O)C1CCCN(c2ccc(SCC(=O)Nc3ccc(Cl)cc3)nn2)C1 (centres undefined)

RP-LC retention time [s] | SMILES
655 | COc1ccc(NC(=O)Cc2nnc(-c3ccc4ncccc4c3)o2)cc1OC
748 | CCCCCC(CN1CCOCC1)C(=O)/C=C/c1ccccc1 (centres undefined)
639 | O=C(NCCCN1CCCC1)c1ccc2ccnc(N3CCN(c4ccc(Cl)cc4)CC3)c2c1
1020 | CCOc1ccc(S(=O)(=O)N2CCCC(C(=O)N3CCN(c4ccccc4)CC3)C2)cc1 (centres undefined)
764 | COCc1cc(=O)n(Cc2cccc(OC)c2)c(N2CCCC2)n1
718 | COc1ccc(C(=O)N2CCCCC2c2nncn2CC2CC2)cc1F (centres undefined)
957 | CCOC(=O)c1[nH]c(C)c(CN(Cc2ccco2)C(=O)Nc2ccccc2)c1C
804 | O=C(Cc1c[nH]c2ccccc12)NCCc1c[nH]c2ccc(F)cc12
916 | CCc1cccc(NC(=O)CN2C(=O)CCCc3cc(S(=O)(=O)N4CCCC4)ccc32)c1
620 | Cc1cc(C(=O)Nc2nnc(-c3ccn(C(C)C)n3)o2)no1
968 | Cc1noc(-c2ccnc(-n3ncc(C(=O)NC4CCCCCC4)c3C)c2)n1
692 | COc1ccc(NC(=O)N2CCCC(Cn3cnc4cccnc43)C2)cc1Cl (centres undefined)
998 | O=C(CCc1ccccc1)NCCn1c(C(F)(F)F)nc2cccnc21
557 | CN(C)C[C@@H]1CN(c2ncccn2)C[C@H]1NC(=O)c1ccc2ncccc2c1
615 | O=C(CCCN1C(=O)C(c2ccccc2)Oc2cccnc21)NCCCN1CCOCC1 (centres undefined)
997 | CCCNC(=O)c1ccc2c(=O)n(Cc3ccccc3)c(N(CC)CC)nc2c1
732 | Cc1cccc(NC(=O)CN2CCN(Cc3ccc(F)cc3)C(=O)C2=O)c1C
660 | CCc1nc(-c2csc(S(=O)(=O)N3CCC(C(=O)Nc4ccc(C)c(C)c4)CC3)c2)no1
666 | O=C(Cn1nc2n(c1=O)CCCCC2)Nc1ccc(F)cc1
706 | CCOC(=O)c1c(CN2CCN(CC#N)CC2)n(C)c2cc(Br)c(OC(C)=O)cc12
590 | CC1CCCN(CCCNC(=O)c2cccc3c2SCCC3=O)C1 (centres undefined)
967 | Cc1cc2nn(CC(=O)Nc3ccc(F)c(F)c3)c(=O)n2c(Nc2ccccc2)n1
642 | COc1cc(CCC(=O)Nc2c(C(=O)N3CCN(c4ccccn4)CC3)oc3ccccc23)on1
